Laboratory results taken from patent US20260224547A1, “COMPOSITIONS COMPRISING ANATABINE AND USES THEREOF” (Philip Morris Products S.A., priority 2021, published 2026).

System: HEK-293, SH-SY5Y, primary human keratinocytes, THP-1 differentiated with PMA
Test: Transcriptomics (microarray) after anatabine treatment of 4 cell systems
Format: cell-based
Method: To investigate the signalling pathways triggered by anatabine, 4 cell systems (HEK-293, SH-SY5Y, primary human keratinocytes, THP-1 differentiated with PMA) were treated with 4 concentrations of anatabine (100, 200, 300, 400 μM) for 6 hours, after which transcriptomics measurements were performed.
HEK-293 is a human embryonic kidney cell line devoid of nicotinic receptors. It can be relatively easily transfected and therefore used as a tool to express various subtypes of nicotinic receptors or reporter genes such as NRF2-driven luciferase, which were also used in this study. HEK-293 were seeded in a cell culture medium consisting of EMEM, 10% FBS, 1% NEAA, 1% Sodium Pyruvate and 1% PenStrep. 60,000 cells were seeded per well of a 96-well plate.
SH-SY5Y is a human bone marrow neuroblastoma cell line that has been used by researchers to investigate the potential anti-inflammatory effect of anatabine. SH-SY5Y were seeded in a cell culture medium consisting of 50% EMEM and 50% Ham's F12 nutrient and including 10% FBS, 1% PenStrep and 1% L-glutamine. 15,000 cells were seeded per well of a 96-well plate.
Primary human keratinocytes have been included as a relevant cell system for skin. The batch of keratinocytes was selected in order to have healthy, non-smoker, 20-60 years old, Caucasian donors. The keratinocytes were seeded in a cell culture medium consisting of KGM-Gold Keratinocyte Growth Medium. 17,500 cells were seeded per well of a 96-well plate.
The human leukaemia-derived monocytic cell line THP-1, is the most widely used in vitro model for primary human macrophage investigations. THP-1 cells were seeded in a cell culture medium consisting of RPMI, 10% FBS and 1% PenStrep and in the presence of 40 ng/ml phorbol 12-myristate 13-acetate (PMA). 100,000 cells were seeded per well of a 96-well plate, having a total volume of […] per well. 48 hours later the medium was changed to the same culture medium but without PMA, and the culture was left to rest for 24 h before treatment.
All four cell systems were seeded in 96 well plates at a total volume of 190 μl per well to allow for a 20× compound stimulation with a volume of 10 μL. 24 hours after seeding—or in the case of THP-1, 24 h after changing to non-PMA medium—four cell systems were stimulated with anatabine (prepared at 20× the corresponding target concentration) to obtain a final molar concentration of 100, 200, 300, 400 μM anatabine.
In order to generate the transcriptomics data, the four cell systems were exposed to various concentrations of anatabine (100, 200, 300, 400 μM) for 6 hours. The transcriptome of the cells was analysed by a microarray-based analysis.
The cells were lysed using RLT BUFFER (Qiagen Hilden, Germany) for all cell types except the keratinocytes which were lysed with QIAZOL LYSIS REAGENT (Qiagen). RNA isolation was performed with RNEASY MICRO KIT (Qiagen). RNA quantification was assessed with a NANODROP 1000 (ThermoFisher Waltham, MA, USA) and quality of the total RNA was verified acquiring a profile with a 2100 BIOANALYZER (Agilent Technologies, Santa Clara, CA, USA), requiring an RIN number greater than 6.0. 50 ng of total RNA were processed as described in the TECAN/NUGEN OVATION RNA AMPLIFICATION SYSTEM V2 (Tecan Mannedorf, Switzerland). Human Genome U133 Plus 2.0 array were used for hybridization on a THERMOFISHER OVEN 645, washed on THERMOFISHER GENECHIP™ FLUIDICS STATIONS 450DX (protocol FS450-0004) and scanned on a THERMOFISHER GENECHIP™ SCANNER 3000 7G.
Quality control check of all chips was done with the BIOCONDUCTOR affyPLM R package version 1.64. Following quality control procedures, differential gene expression analysis was performed using the BIOCONDUCTOR LIMMA R package version 3.44.3. Pairwise comparisons at the gene level, called systems response profiles (SRP), were computed by comparing each concentration-treatment with its respective vehicle control. […]

## C1=CCC(c2cccnc2)NC1 (racemic) [anatabine, 1,2,3,6-Tetrahydro-2,3′-bipyridine]
ATF3 gene, KEAT, anatabine 100 μM
  Fold Change: 0.2106
ATF3 gene, KEAT, anatabine 200 μM
  Fold Change: 0.3169
ATF3 gene, KEAT, anatabine 300 μM
  Fold Change: 1.893
ATF3 gene, KEAT, anatabine 400 μM
  Fold Change: 1.185
ATF3 gene, SHSY5Y, anatabine 100 μM
  Fold Change: 0.04701
ATF3 gene, SHSY5Y, anatabine 200 μM
  Fold Change: 0.3038
ATF3 gene, SHSY5Y, anatabine 300 μM
  Fold Change: 0.6207
ATF3 gene, SHSY5Y, anatabine 400 μM
  Fold Change: 1.206
ATF3 gene, THP1, anatabine 100 μM
  Fold Change: −0.02648
EEF2K gene, THP1, anatabine 300 μM
  Fold Change: −0.3419
EEF2K gene, THP1, anatabine 400 μM
  Fold Change: −0.7245
EID3 gene, HEK293, anatabine 100 μM
  Fold Change: 0.1833
EID3 gene, HEK293, anatabine 200 μM
  Fold Change: 0.5345
EID3 gene, HEK293, anatabine 300 μM
  Fold Change: 0.9247
EID3 gene, HEK293, anatabine 400 μM
  Fold Change: 0.9528
EID3 gene, KEAT, anatabine 100 μM
  Fold Change: 1.694
EID3 gene, KEAT, anatabine 200 μM
  Fold Change: 1.995
EID3 gene, KEAT, anatabine 300 μM
  Fold Change: 3.641
EID3 gene, KEAT, anatabine 400 μM
  Fold Change: 3.12
EID3 gene, SHSY5Y, anatabine 100 μM
  Fold Change: 0.2913
EID3 gene, SHSY5Y, anatabine 200 μM
  Fold Change: 0.3156
EID3 gene, SHSY5Y, anatabine 300 μM
  Fold Change: 0.6868
EID3 gene, SHSY5Y, anatabine 400 μM
  Fold Change: 1.05
EID3 gene, THP1, anatabine 100 μM
  Fold Change: 0.1121
EID3 gene, THP1, anatabine 200 μM
  Fold Change: 0.4679
EID3 gene, THP1, anatabine 300 μM
  Fold Change: 0.5698
EID3 gene, THP1, anatabine 400 μM
  Fold Change: 1.615
FAM53C gene, HEK293, anatabine 100 μM
  Fold Change: 0.3792
FAM53C gene, HEK293, anatabine 200 μM
  Fold Change: 0.423
FAM53C gene, HEK293, anatabine 300 μM
  Fold Change: 0.6969
FAM53C gene, HEK293, anatabine 400 μM
  Fold Change: 0.7367
FAM53C gene, KEAT, anatabine 100 μM
  Fold Change: 0.1269
FAM53C gene, KEAT, anatabine 200 μM
  Fold Change: 0.2194
FAM53C gene, KEAT, anatabine 300 μM
  Fold Change: 1.067
FAM53C gene, KEAT, anatabine 400 μM
  Fold Change: 0.6853
FAM53C gene, SHSY5Y, anatabine 100 μM
  Fold Change: 0.1212
FAM53C gene, SHSY5Y, anatabine 200 μM
  Fold Change: 0.4283
FAM53C gene, SHSY5Y, anatabine 300 μM
  Fold Change: 0.5427
FAM53C gene, SHSY5Y, anatabine 400 μM
  Fold Change: 0.873
FAM53C gene, THP1, anatabine 100 μM
  Fold Change: 0.144
FAM53C gene, THP1, anatabine 200 μM
  Fold Change: 0.2515
FAM53C gene, THP1, anatabine 300 μM
  Fold Change: 0.6296
FAM53C gene, THP1, anatabine 400 μM
  Fold Change: 0.8729
FBXO30 gene, HEK293, anatabine 100 μM
  Fold Change: 0.001539
FBXO30 gene, HEK293, anatabine 200 μM
  Fold Change: 0.2872
FBXO30 gene, HEK293, anatabine 300 μM
  Fold Change: 0.3586
FBXO30 gene, HEK293, anatabine 400 μM
  Fold Change: 0.5949
FBXO30 gene, KEAT, anatabine 100 μM
  Fold Change: 0.619
FBXO30 gene, KEAT, anatabine 200 μM
  Fold Change: 0.8807
FBXO30 gene, KEAT, anatabine 300 μM
  Fold Change: 1.832
FBXO30 gene, KEAT, anatabine 400 μM
  Fold Change: 1.526
FBXO30 gene, SHSY5Y, anatabine 100 μM
  Fold Change: −0.5195
FBXO30 gene, SHSY5Y, anatabine 200 μM
  Fold Change: 0.3153
FBXO30 gene, SHSY5Y, anatabine 300 μM
  Fold Change: 0.5475
FBXO30 gene, SHSY5Y, anatabine 400 μM
  Fold Change: 0.9269
FBXO30 gene, THP1, anatabine 100 μM
  Fold Change: 0.002856
FBXO30 gene, THP1, anatabine 200 μM
  Fold Change: 0.427
FBXO30 gene, THP1, anatabine 300 μM
  Fold Change: 0.6595
FBXO30 gene, THP1, anatabine 400 μM
  Fold Change: 1.224
G0S2 gene, HEK293, anatabine 100 μM
  Fold Change: −0.159
G0S2 gene, HEK293, anatabine 200 μM
  Fold Change: −0.1114
G0S2 gene, HEK293, anatabine 300 μM
  Fold Change: −0.6854
G0S2 gene, HEK293, anatabine 400 μM
  Fold Change: −0.7292
G0S2 gene, KEAT, anatabine 100 μM
  Fold Change: −0.3516
G0S2 gene, KEAT, anatabine 200 μM
  Fold Change: −0.5508
G0S2 gene, KEAT, anatabine 300 μM
  Fold Change: −1.361
G0S2 gene, KEAT, anatabine 400 μM
  Fold Change: −1.016
G0S2 gene, SHSY5Y, anatabine 100 μM
  Fold Change: −0.0648
